In patent US20090192154A1, “SULTAM DERIVATIVES” (Asahi Kasei Pharma Corporation, priority 2007, published 2009) one finds IC50 data, which are given here for 25 compounds.

Holding throughout (assay type): biochemical
Assay [1] concerns the target T1, human recombinant ADAMTS-5 (Homo sapiens, UniProt Q9UNA0).
T1 construct: human recombinant ADAMTS-5 in which 6×His tag was added to the C-end side of Asn624; 6xHis (C); made in house
T1 sequence (Q9UNA0 262-624 limits assumed): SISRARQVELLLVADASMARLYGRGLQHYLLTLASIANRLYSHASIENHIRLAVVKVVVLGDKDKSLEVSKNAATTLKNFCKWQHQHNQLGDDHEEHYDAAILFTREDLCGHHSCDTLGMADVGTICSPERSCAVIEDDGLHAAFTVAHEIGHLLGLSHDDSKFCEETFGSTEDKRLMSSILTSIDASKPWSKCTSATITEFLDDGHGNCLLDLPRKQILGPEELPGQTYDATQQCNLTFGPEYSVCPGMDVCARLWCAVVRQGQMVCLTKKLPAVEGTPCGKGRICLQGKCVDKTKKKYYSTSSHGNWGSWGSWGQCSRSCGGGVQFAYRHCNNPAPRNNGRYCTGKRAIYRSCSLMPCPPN
The assay can be described thus: Inhibitory action for ADAMTS-5 (aggrecanase) activity, FRET assay with aggrecan interglobular domain peptide. As to conditions: human recombinant ADAMTS-5, 37° C. for 60 minutes. As to the method:
The enzyme protein used for measurement of ADAMTS-5 activity was human recombinant ADAMTS-5. An insect cell line was prepared that stably expressed human recombinant ADAMTS-5 in which 6×His tag was added to the C-end side of Asn624. The culture supernatant of this cell line was collected, and the obtained culture supernatant was purified using Ni-NTA agarose (Qiagen)
A matrix peptide used for measurement of aggrecanase activity was Interglobular domain of human recombinant aggrecan. With reference to the method of Hughes, et al. (J. Biol. Chem. 272: pp. 20269-20274, 1997), the peptide of Thr331 to Gly457 of human aggrecan was contained, and the FLAG epitope peptide was added at the N-terminal, and the C-terminal was modified with biotin. This peptide was expressed using Escherichia coli, and the obtained Escherichia coli was subjected to lysis, and then the peptide was purified with an affinity column (Promega)
Desired concentration of the test compound was reacted in 40 μl of a mixed reaction solution containing 50 mmol/L Tris-HCl (pH 7.5), 100 mmol/L NaCl, 10 mmol/L CaCl2, 0.05% Brij35 and human recombinant ADAMTS-5 and Interglobular domain peptide of human recombinant aggrecan at 37° C. for 60 minutes. To the mixed reaction solution was added 10 μl of 0.2 mol/L EDTA to stop the enzyme reaction. Five μl of this mixed reaction solution was harvested and transferred to a 384 well plate. 0.2% Bovine albumin, cryptate-labeled Streptavidin (CIS bio) and XL 665-labeled anti-FLAG (M2) antibody (CIS bio) suitably diluted with PBS (−)-containing 800 mmol/L potassium fluoride were added thereto so that the amount of each of the added matters was 2.5 μl. The resultant solution was incubated at room temperature. After 60 minutes, the fluorescence value was measured at 340 nm excitation wavelength and 615 nm and 665 nm measurement wavelengths with a fluorescence plate reader. When the matrix peptide was not cleaved, the fluorescence resonance energy transfer from cryptate to XL665 occurs and long life fluorescence of 665 nm wavelength is generated. […] Therefore, the aggrecanase activity was calculated using the change of the ratio of the fluorescence value at 665 nm and the fluorescence value at 615 nm. […] The inhibitory action for aggrecanase activity was represented by IC50 value (μmol/L). Exp. No. in Table 2 represents Example number.

For assay [2], the target named is T2, activated human recombinant MMP-2 (Homo sapiens, UniProt P08253).
T2 construct: purchased R&D
T2 sequence (P08253 110-660): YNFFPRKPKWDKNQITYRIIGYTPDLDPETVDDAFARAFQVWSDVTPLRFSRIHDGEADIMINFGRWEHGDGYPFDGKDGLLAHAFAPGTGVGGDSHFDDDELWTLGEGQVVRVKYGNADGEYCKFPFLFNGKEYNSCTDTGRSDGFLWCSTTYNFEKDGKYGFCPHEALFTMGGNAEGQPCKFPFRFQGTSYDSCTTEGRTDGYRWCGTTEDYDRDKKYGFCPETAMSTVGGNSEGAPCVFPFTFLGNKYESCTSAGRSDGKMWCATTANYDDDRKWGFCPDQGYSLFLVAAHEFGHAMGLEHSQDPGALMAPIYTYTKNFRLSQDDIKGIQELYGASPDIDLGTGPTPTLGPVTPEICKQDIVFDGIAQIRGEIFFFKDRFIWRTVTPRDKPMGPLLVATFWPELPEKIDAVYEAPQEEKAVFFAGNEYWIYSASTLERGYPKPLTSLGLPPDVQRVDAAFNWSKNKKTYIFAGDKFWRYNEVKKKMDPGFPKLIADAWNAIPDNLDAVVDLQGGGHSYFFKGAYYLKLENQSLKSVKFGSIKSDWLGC
The assay can be described thus: Inhibitory action for MMP-2 activity, fluorescence peptide assay. As to conditions: activated human recombinant MMP-2, 30° C. for 45 minutes. As to the method: Desired concentration of the test compound was reacted in 100 μl of a mixed reaction solution containing 50 mmol/L Tris-HCl (pH7.5), 150 mmol/L NaCl, 10 mmol/LCaCl2, 0.05% Brij35 and activated human recombinant MMP-2 (R&D) and fluorescence peptide matrix Mca-ProLeuGlyLeuDpaAlaArg-NH2 (R&D) at 30° C. for 45 minutes. To the mixed reaction solution, 10 μl of 0.2 mol/L EDTA was added to stop the enzyme reaction. Then, the fluorescence value was measured at 320 nm excitation wavelength and 405 nm measurement wavelength with a fluorescence plate reader.

Assay [3] addresses T3, activated human recombinant MMP-14 catalytic domain (Homo sapiens, UniProt P50281).
T3 construct: purchased Calbiochem
The assay can be described thus: Inhibitory action for MMP-14 activity, fluorescence peptide assay. As to conditions: 30° C. for 45 minutes. The procedure:
Desired concentration of the test compound was reacted in 100 μl of a mixed reaction solution containing 50 mmol/L Tris-HCl (pH7.5), 150 mmol/LNaCl, 10 mmol/LCaCl2, 0.05% Brij35 and activated human recombinant MMP-14 catalytic domain (Calbiochem) and fluorescence peptide matrix (R&D) at 30° C. for 45 minutes. To the mixed reaction solution was added 10 μl of 0.2 mol/L EDTA to stop the enzyme reaction. Then, the fluorescence value was measured at 320 nm excitation wavelength and 405 nm measurement wavelength with a fluorescence plate reader.

The target of assay [4] is T4, activated human recombinant MMP-3 (Homo sapiens, UniProt P08254).
T4 construct: purchased R&D
The assay can be described thus: Inhibitory action for MMP-3 activity, fluorescence peptide assay. As to conditions: activated human recombinant MMP-3, 30° C. for 45 minutes. The procedure:
Desired concentration of the test compound was reacted in 100 μl of a mixed reaction solution containing 50 mmol/L Tris-HCl (pH7.5), 150 mmol/LNaCl, 10 mmol/LCaCl2, 0.05% Brij35 and activated human recombinant MMP-3 (R&D) and fluorescence peptide matrix Mca-ArgProLysProValGlu-Nval-TrpArgLys (Dnp) —NH2 (R&D) at 30° C. for 45 minutes. To the mixed reaction solution was added 10 μl of 0.2 mol/L EDTA to stop the enzyme reaction. Then, the fluorescence value was measured at 320 nm excitation wavelength and 405 nm measurement wavelength with a fluorescence plate reader.

The mark [5] stands for this setting: read-out: ADAMTS-5 inhibitory activity IC50 value.

Like-named read-outs stand apart in the source and are kept apart here.

T4 sequence (P08254 100-477): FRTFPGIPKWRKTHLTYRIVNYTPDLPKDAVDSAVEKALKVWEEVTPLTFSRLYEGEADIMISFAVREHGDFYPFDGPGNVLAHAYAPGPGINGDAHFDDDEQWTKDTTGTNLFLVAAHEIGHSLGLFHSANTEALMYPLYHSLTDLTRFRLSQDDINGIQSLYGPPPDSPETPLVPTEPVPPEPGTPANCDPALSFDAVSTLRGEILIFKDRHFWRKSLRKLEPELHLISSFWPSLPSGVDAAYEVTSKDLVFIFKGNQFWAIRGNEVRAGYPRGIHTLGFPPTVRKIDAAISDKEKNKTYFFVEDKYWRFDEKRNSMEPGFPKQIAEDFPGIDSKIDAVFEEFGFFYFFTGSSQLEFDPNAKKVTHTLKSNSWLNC

Turning to `CCC(C(=O)O)N1Cc2sc(C#Cc3ccc(-c4ccccc4)cc3)cc2S1(=O)=O` (centres unmarked) [Example 69], the IC50 in assay [1] (setting [5]) was not above 2000 nM.
Turning to `CCC(C(=O)NO)N1Cc2sc(-c3ccccc3)cc2S1(=O)=O` (centres unmarked) [Example 12], the IC50 in assay [1] (read-out: ADAMTS-5 IC50) worked out at 2000 nM.
For the compound `CCC(C(=O)NO)N1Cc2sc(-c3ccccc3)cc2S1(=O)=O` (centres unmarked) [Example 18], the IC50 in assay [1] (setting [5]) was not above 2000 nM.
Turning to `O=C(NO)C(c1ccccc1)N1Cc2sc(-c3ccccc3)cc2S1(=O)=O` (centres unmarked) [Example 14], the IC50 in assay [1] (read-out: ADAMTS-5 IC50) was 7000 nM.
For `CCC(C(=O)O)N1Cc2sc(/C=C/c3ccc(-c4ccccc4)cc3)cc2S1(=O)=O` (centres unmarked) [Example 22], in assay [1] (setting [5]), the IC50 was not above 2000 nM.
Same read-out and setting: in the case of `CCC(C(=O)O)N1Cc2sc(-c3ccc(/C=C/c4ccc(OC)cc4)cc3)cc2S1(=O)=O` (centres unmarked) [Example 60] it was not above 2000 nM.
Regarding `O=C(NO)C(C1CCCCC1)N1Cc2sc(-c3ccccc3)cc2S1(=O)=O` (centres unmarked) [Example 13], the half-inhibitory concentration (IC50) in assay [1] (read-out: ADAMTS-5 IC50) was found to be 2000 nM.
As to `CCC(C(=O)O)N1Cc2sc(-c3ccc(C#Cc4ccccc4)cc3)cc2S1(=O)=O` (centres unmarked) [Example 61], the IC50 in assay [1] (setting [5]) is not above 2000 nM.
For the compound `CC(C(=O)NO)N1Cc2sc(-c3ccccc3)cc2S1(=O)=O` (centres unmarked) [Example 11], the IC50 in assay [1] (read-out: ADAMTS-5 IC50) came out at 4000 nM.
On to `CCC(C(=O)O)N1Cc2sc(/C=C/c3ccc(-c4ccccc4)cc3)cc2S1(=O)=O` (single isomer, unassigned) [Example 41], for which, in assay [1] (setting [5]), the 50% inhibitory concentration (IC50) is not above 2000 nM.
The same measure, in the same setting: the figure for `CCC(C(=O)O)N1Cc2sc(-c3ccc(/C=C/c4ccsc4)cc3)cc2S1(=O)=O` (centres unmarked) [Example 97] is not above 2000 nM; for `CCC(C(=O)O)N1Cc2sc(-c3ccc(-c4cc5ccccc5[nH]4)cc3)cc2S1(=O)=O` (centres unmarked) [Example 54] it is not above 2000 nM.
As to `CCC(C(=O)O)N1Cc2sc(-c3ccc(NC(=O)c4ccc(OCc5ccccc5)cc4)cc3)cc2S1(=O)=O` (centres unmarked) [Example 147], the IC50 in assay [2] is not below 30000 nM; in assay [1] (setting [5]), not above 2000 nM; in assay [3], not below 30000 nM; in assay [4] it was not below 30000 nM.
`CCC(C(=O)O)N1Cc2sc(-c3ccc(/C=C/c4ccccc4)cc3)cc2S1(=O)=O` (centres unmarked) [Example 30]: the IC50 in assay [1] (setting [5]) was not above 2000 nM.
Regarding `CCC(C(=O)O)N1Cc2sc(C#Cc3ccc(N(C)C)cc3)cc2S1(=O)=O` (centres unmarked) [Example 66], the IC50 in assay [1] (setting [5]) is not above 2000 nM.
With `CCC(C(=O)O)N1Cc2sc(-c3ccc(/C=C/c4ccc(-c5ccccc5)cc4)cc3)cc2S1(=O)=O` (centres unmarked) [Example 96], the IC50 in assay [2] was not below 30000 nM; in assay [1] (setting [5]), not above 2000 nM; in assay [3], not below 30000 nM; in assay [4] it was not below 30000 nM.
For the compound `CCC(C(=O)O)N1Cc2cc(-c3ccc(COc4ccc(Oc5ccccc5)cc4)cc3)sc2S1(=O)=O` (centres unmarked) [Example 104], the IC50 is not below 30000 nM in assay [2], not above 2000 nM in assay [1] (setting [5]), not below 30000 nM in assay [3] and not below 30000 nM in assay [4].
In the case of `CCC(C(=O)O)N1Cc2sc(-c3ccc(/C=C/c4ccc(Cl)cc4)cc3)cc2S1(=O)=O` (centres unmarked) [Example 94], the half-maximal inhibitory concentration (IC50) in assay [1] (setting [5]) was not above 2000 nM.
`CCC(C(=O)O)N1Cc2sc(-c3ccc(/C=C/c4ccc(C)cc4)cc3)cc2S1(=O)=O` (centres unmarked) [Example 95]: the IC50 in assay [1] (setting [5]) was not above 2000 nM.
The same measure, in the same setting: in the case of `CCC(C(=O)O)N1Cc2sc(-c3ccc(-c4ccc5c(ccn5C)c4)cc3)cc2S1(=O)=O` (centres unmarked) [Example 53] it was not above 2000 nM.
Turning to `CCC(C(=O)O)N1Cc2sc(-c3ccc(OCc4ccccc4)c(F)c3)cc2S1(=O)=O` (centres unmarked) [Example 113], the IC50 in assay [2], in assay [3] and in assay [4] was not below 30000 nM throughout.
Turning to `CCC(C(=O)NO)N1Cc2sc(/C=C/c3ccc(-c4ccccc4)cc3)cc2S1(=O)=O` (centres unmarked) [Example 26], in assay [1] (setting [5]), the IC50 is not above 2000 nM.
With `CCC(C(=O)O)N1Cc2sc(-c3ccc(-c4ccc5c(cnn5C)c4)cc3)cc2S1(=O)=O` (centres unmarked) [Example 102], the IC50 in assay [1] (setting [5]) was not above 2000 nM; in assay [3] it was not below 30000 nM; in assay [4], not below 30000 nM.
Turning to `CC(C)C(C(=O)NO)N1Cc2sc(-c3ccccc3)cc2S1(=O)=O` (centres unmarked) [Example 5], the IC50 in assay [1] (read-out: ADAMTS-5 IC50) was 2100 nM.
As for `CCC(C(=O)O)N1Cc2sc(-c3ccc(-c4cncnc4)cc3)cc2S1(=O)=O` (centres unmarked) [Example 56], the IC50 in assay [1] (setting [5]) was not above 2000 nM.

As usually defined, the IC50 is the concentration at which inhibition is half-maximal.
